In ChEMBL document CHEMBL3098009, “Synthesis of a novel series of artemisinin dimers with potent anticancer activity involving Sonogashira cross-coupling reaction” (2014):

Key:
Assay type in all cases: functional
[1] = tested on: HeLa; test: Cytotoxicity against human HeLa cells assessed as growth inhibition at 10 uM by SRB assay; conditions: read-out: GI
[2] = tested on: A549; test: Cytotoxicity against human A549 cells assessed as growth inhibition at 50 uM by SRB assay; conditions: read-out: GI
[3] = Cytotoxicity against human IMR32 cells assessed as growth inhibition at 50 uM by SRB assay; conditions: IMR-32, read-out: GI
[4] = tested on: A549; test: Cytotoxicity against human A549 cells assessed as growth inhibition at 10 uM by SRB assay; conditions: read-out: GI
[5] = Cytotoxicity against human IMR32 cells assessed as growth inhibition at 10 uM by SRB assay; conditions: IMR-32, read-out: GI
[6] = Cytotoxicity against human prostate cancer cells assessed as growth inhibition at 50 uM by SRB assay; conditions: Cancer cell lines, read-out: GI
[7] = Cytotoxicity against human prostate cancer cells assessed as growth inhibition at 10 uM by SRB assay; conditions: Cancer cell lines, read-out: GI
[8] = tested on: MCF7; test: Cytotoxicity against human MCF7 cells assessed as growth inhibition at 50 uM by SRB assay; conditions: read-out: GI
[9] = tested on: MCF7; test: Cytotoxicity against human MCF7 cells assessed as growth inhibition at 10 uM by SRB assay; conditions: read-out: GI
[10] = tested on: HeLa; test: Cytotoxicity against human HeLa cells assessed as growth inhibition at 50 uM by SRB assay; conditions: read-out: GI

Structure (SMILES)	inhibition of growth at 10 µM [1] [%]	inhibition of growth at 50 µM [2] [%]	inhibition of growth at 50 µM [3] [%]	inhibition of growth at 10 µM [4] [%]	inhibition of growth at 10 µM [5] [%]	inhibition of growth at 50 µM [6] [%]	inhibition of growth at 10 µM [7] [%]	inhibition of growth at 50 µM [8] [%]	inhibition of growth at 10 µM [9] [%]	inhibition of growth at 50 µM [10] [%]
O=c1[nH]cc(F)c(=O)[nH]1 [FLUOROURACIL]	62	–	–	–	–	–	–	–	–	–
C[C@@H]1CC[C@H]2[C@@H](C)C(OCCC#Cc3cccc(C#CCCOC4O[C@@H]5O[C@@]6(C)CC[C@H]7[C@H](C)CC[C@@H]([C@H]4C)[C@@]57OO6)c3)O[C@@H]3O[C@@]4(C)CC[C@@H]1[C@]32OO4 (stereo partly specified)	–	65	30	60	10	60	45	–	–	–
C[C@@H]1CC[C@H]2[C@@H](C)C(OCC#Cc3ccc(C#CCOC4O[C@@H]5O[C@@]6(C)CC[C@H]7[C@H](C)CC[C@@H]([C@H]4C)[C@@]57OO6)cc3)O[C@@H]3O[C@@]4(C)CC[C@@H]1[C@]32OO4 (stereo partly specified)	34	69	56	67	50	68	56	45	36	43
C[C@@H]1CC[C@H]2[C@@H](C)C(OCCC#Cc3ccc(C#CCCOC4O[C@@H]5O[C@@]6(C)CC[C@H]7[C@H](C)CC[C@@H]([C@H]4C)[C@@]57OO6)cc3)O[C@@H]3O[C@@]4(C)CC[C@@H]1[C@]32OO4 (stereo partly specified)	20	72	37	56	11	55	48	41	26	24
C[C@@H]1CC[C@H]2[C@@H](C)C(=O)O[C@@H]3O[C@@]4(C)CC[C@@H]1[C@]32OO4 [ARTEMISININ]	51	38	34	26	24	40	35	36	25	66
CO[C@@]12[C@H](COC(N)=O)C3=C(C(=O)C(C)=C(N)C3=O)N1C[C@@H]1N[C@@H]12 [MITOMYCIN]	–	–	–	–	–	–	65	–	–	–
C[C@@H]1CC[C@H]2[C@@H](C)C(OCC#Cc3ccc(C#CCOC4O[C@@H]5O[C@@]6(C)CC[C@H]7[C@H](C)CC[C@@H]([C@H]4C)[C@@]57OO6)s3)O[C@@H]3O[C@@]4(C)CC[C@@H]1[C@]32OO4 (stereo partly specified)	35	73	83	70	54	47	44	29	25	37
C[C@@H]1CC[C@H]2[C@@H](C)C(OCC#Cc3ccc(-c4ccc(C#CCOC5O[C@@H]6O[C@@]7(C)CC[C@H]8[C@H](C)CC[C@@H]([C@H]5C)[C@@]68OO7)cc4)cc3)O[C@@H]3O[C@@]4(C)CC[C@@H]1[C@]32OO4 (stereo partly specified)	47	69	43	64	34	68	46	32	30	57
COc1cccc2c1C(=O)c1c(O)c3c(c(O)c1C2=O)C[C@@](O)(C(=O)CO)C[C@@H]3O[C@H]1C[C@H](N)[C@H](O)[C@H](C)O1 [DOXORUBICIN]	–	–	–	–	69	–	–	–	–	–
C[C@@H]1CC[C@H]2[C@@H](C)C(OCC#Cc3cccc(C#CCOC4O[C@@H]5O[C@@]6(C)CC[C@H]7[C@H](C)CC[C@@H]([C@H]4C)[C@@]57OO6)c3)O[C@@H]3O[C@@]4(C)CC[C@@H]1[C@]32OO4 (stereo partly specified)	–	70	45	65	40	65	50	–	–	–
CC(=O)O[C@H]1C(=O)[C@@]2(C)[C@H]([C@H](OC(=O)c3ccccc3)[C@]3(O)C[C@H](OC(=O)[C@H](O)[C@@H](NC(=O)c4ccccc4)c4ccccc4)C(C)=C1C3(C)C)[C@]1(OC(C)=O)CO[C@@H]1C[C@@H]2O [PACLITAXEL]	–	–	–	56	–	–	–	–	–	–
C[C@@H]1CC[C@H]2[C@@H](C)C(OCCC#Cc3ccc(-c4ccc(C#CCCOC5O[C@@H]6O[C@@]7(C)CC[C@H]8[C@H](C)CC[C@@H]([C@H]5C)[C@@]68OO7)cc4)cc3)O[C@@H]3O[C@@]4(C)CC[C@@H]1[C@]32OO4 (stereo partly specified)	18	74	27	67	4	47	41	38	24	50
C[C@@H]1CC[C@H]2[C@@H](C)C(OCCC#Cc3ccc(C#CCCOC4O[C@@H]5O[C@@]6(C)CC[C@H]7[C@H](C)CC[C@@H]([C@H]4C)[C@@]57OO6)s3)O[C@@H]3O[C@@]4(C)CC[C@@H]1[C@]32OO4 (stereo partly specified)	51	78	28	77	26	53	49	41	31	52
